Test results: US20190216725A1, “DRUG DELIVERY SYSTEM FOR THE DELIVERY OF INTEGRASE INHIBITORS” (MERCK SHARP & DOHME CORP., priority 2016, published 2019)

Assay: maximum solubility in PBS + solutol
Format: physicochemical
Settings: aqueous with cosolvent or surfactant or cyclodextrin

solubility (in PBS+2 wt % solutol)	solubility (in PBS+5 wt % solutol)	SMILES
150 µg/mL	260 µg/mL	C[C@]12CCCO[C@H]1Cn1cc(C(=O)NCc3ccc(F)cc3F)c(=O)c(O)c1C2=O [active ingredient 1, (4aS,11aR)-N-(2,4-difluorobenzyl)-6-hydroxy-4a-methyl-5,7-dioxo-2,3,4,4a,5,7,11,11a-octahydropyrano[3,2-b]quinolizine-8-carboxamide]
310 µg/mL		CCN1C[C@@H]2C[C@@H](OC)c3c(C(=O)NCc4ccc(F)cc4F)c(=O)c(O)c(n32)C1=O [active ingredient 2, (3aS,5R)-N-(2,4-difluorobenzyl)-2-ethyl-8-hydroxy-5-methoxy-1,7-dioxo-2,3,3a,4,5,7-hexahydro-1H-pyrazino[2,1,6-cd]indolizine-6-carboxamide]
